Measured values published in patent US20240279283A1, “CYCLIC PEPTIDE ANTIBIOTICS” (priority 2021, published 2024).
Bridge positions count the residues as written; N and C are the ends. Square brackets hold non-standard residues; d marks the D form. Peptide text beside a SMILES is read from it. 1Nal = N[C@@H](Cc1cccc2ccccc12)C(=O)O; His(π-Me) = Cn1cncc1C[C@H](N)C(=O)O; NMeF = CN[C@@H](Cc1ccccc1)C(=O)O; Abu = CC[C@H](N)C(=O)O; Aib = CC(C)(N)C(=O)O

What was measured:
E. coli 25922 IMP = assay: Minimum Inhibitory Concentration (MIC) determination, E. coli 25922 IMP; type: cell-based; details: LB broth, 5×10^5 CFU/ml, 37° C., 18 hours, scored by eye
Description: (§1) MICs were determined by performing two-fold serial dilutions of peptides in LB broth to a final volume of 0.1 ml in round-bottom 96-well assay plates (Corning Life Sciences No 3788). Peptides were initially resuspended in 100% DMSO to 10 mM and subsequently diluted in LB medium to the appropriate concentration. Each well was inoculated with 5×10^5 CFU/ml of the screening stain and incubated at 37° C. without agitation for 18 hours. Plates were scored by eye, and the lowest compound concentration preventing visible growth was determined to be the MIC.

E. coli BW25113 = assay: Minimum Inhibitory Concentration (MIC) determination, E. coli BW25113; type: cell-based; set-up: unit not given here; details: LB broth, 5×10^5 CFU/ml, 37° C., 18 hours, scored by eye
Description: as §1

SMILES	MIC E. coli 25922 IMP WUXI::MIC (E. coli 25922 IMP)	MIC E. coli BW25113 WUXI::MIC (E. coli BW25113)
CC[C@@H]1NC(=O)[C@H](Cc2c[nH]cn2)NC(=O)[C@H](Cc2ccccc2)N(C)C(=O)[C@H](CC)NC(=O)[C@H](CO)NC(=O)CNC(=O)[C@H](Cc2c[nH]cn2)NC(=O)[C@H](Cc2cccc3ccccc23)NC(=O)[C@H](C(C)C)NC(=O)[C@H](Cc2ccccc2)NC(=O)CSC[C@@H](C(=O)NCC(N)=O)NC(=O)[C@H](Cc2cncn2C)NC1=O [Compound 8, (3R,6S,9S,12S,15S,18S,21S,27S,30S, 33S,36S)-N-(2-amino-2-oxo-ethyl)-15,36-dibenzyl-9,18-diethyl-21-(hydroxymethyl)-12,27-bis(1H-imidazol-4-ylmethyl)-33-isopropyl-16-methyl-6-[(3-methylimidazol-4-yl)methyl]-30-(1-naphthylmethyl)-5,8,11,14,17,20,23,26,29,32,35,38-dodecaoxo-1-thia-4,7,10,13,16,19,22,25,28,31,34,37-dodecazacyclononatriacontane-3-carboxamide] ({CH2CO}-FV[1Nal]HGS[Abu][NMeF]H[Abu][His(π-Me)]CG-NH2; thioether N-12)	4	>32
CC[C@@H]1NC(=O)[C@H](Cc2ccccc2)NC(=O)CSC[C@@H](C(=O)NCC(N)=O)NC(=O)[C@H](Cc2cncn2C)NC(=O)[C@H](CCCNC(=N)N)NC(=O)[C@H](Cc2cnc[nH]2)NC(=O)[C@H](Cc2ccc(O)cc2)N(C)C(=O)[C@H](CCCNC(=N)N)NC(=O)[C@H](CO)NC(=O)CNC(=O)[C@H](Cc2cnc[nH]2)NC(=O)[C@H](Cc2c[nH]c3ccccc23)NC1=O (racemic) [Compound 12]	3.8137E−06	1
CC[C@H](C)[C@@H]1NC(=O)C(C)(C)NC(=O)[C@H](Cc2cncn2C)NC(=O)[C@H](Cc2ccccc2)NC(=O)CSC[C@@H](C(=O)NCC(N)=O)NC(=O)[C@H](Cc2ccc(O)cc2)NC(=O)[C@H](Cc2c[nH]c3ccccc23)NC(=O)[C@H](Cc2ccc(O)cc2)NC(=O)[C@H](CCCNC(=N)N)NC(=O)[C@H](Cc2ccccc2)NC(=O)C(C)(C)NC(=O)[C@H](CCCNC(=N)N)NC(=O)[C@H](CCCCN)NC(=O)[C@H](CCCNC(=N)N)NC1=O [Compound 57] ({CH2CO}-F[His(π-Me)][Aib]IRKR[Aib]FRYWYCG-NH2; thioether N-14)	2	>32
CC[C@@H]1NC(=O)[C@H](Cc2ccccc2)NC(=O)CSC[C@@H](C(=O)NCC(N)=O)NC(=O)[C@H](Cc2cncn2C)NC(=O)[C@H](CC)NC(=O)[C@H](Cc2c[nH]cn2)NC(=O)[C@H](Cc2ccccc2)N(C)C(=O)[C@H](CCCNC(=N)N)NC(=O)[C@H](CO)NC(=O)CNC(=O)[C@H](Cc2c[nH]cn2)NC(=O)[C@H](Cc2c[nH]c3ccccc23)NC1=O [Compound 4, (3R,6S,9S,12S,15S,18S,21S,27S,30S, 33S,36S)-N-(2-amino-2-oxo-ethyl)-15,36-dibenzyl-9,33-diethyl-18-(3-guanidinopropyl)-21-(hydroxymethyl)-12,27-bis(1H-imidazol-4-ylmethyl)-30-(1H-indol-3-ylmethyl)-16-methyl-6-[(3-methylimidazol-4-yl)methyl]-5,8,11,14,17,20,23,26,29,32,35,38-dodecaoxo-1-thia-4,7,10,13,16,19,22,25,28,31,34,37-dodecazacyclononatriacontane-3-carboxamide] ({CH2CO}-F[Abu]WHGSR[NMeF]H[Abu][His(π-Me)]CG-NH2; thioether N-12)	0.128	>32
CC[C@@H]1NC(=O)[C@H](Cc2ccccc2)NC(=O)CSC[C@@H](C(=O)NCC(N)=O)NC(=O)[C@H](Cc2cncn2C)NC(=O)[C@H](CCCNC(=N)N)NC(=O)[C@H](Cc2cnc[nH]2)NC(=O)[C@H](Cc2ccccc2)N(C)C(=O)[C@H](CCCNC(=N)N)NC(=O)[C@H](CO)NC(=O)CNC(=O)[C@H](Cc2c[nH]cn2)NC(=O)[C@H](Cc2c[nH]c3ccccc23)NC1=O [Compound 7, (3R,6S,9S,12S,15S,18S,21S,27S,30S, 33S,36S)-N-(2-amino-2-oxo-ethyl)-15,36-dibenzyl-33-ethyl-9,18-bis(3-guanidinopropyl)-21-(hydroxymethyl)-12,27-bis(1H-imidazol-4-ylmethyl)-30-(1H-indol-3-ylmethyl)-16-methyl-6-[(3-methylimidazol-4-yl)methyl]-5,8,11,14,17,20,23,26,29,32,35,38-dodecaoxo-1-thia-4,7,10,13,16,19,22,25,28,31,34,37-dodecazacyclononatriacontane-3-carboxamide] ({CH2CO}-F[Abu]WHGSR[NMeF]HR[His(π-Me)]CG-NH2; thioether N-12)	0.0005	2
CC[C@H](C)[C@@H]1NC(=O)[C@H]([C@@H](C)O)NC(=O)[C@H](Cc2cncn2C)NC(=O)[C@H](Cc2ccccc2)NC(=O)CSC[C@@H](C(=O)NCC(N)=O)NC(=O)[C@H](Cc2ccc(O)cc2)NC(=O)[C@H](Cc2c[nH]c3ccccc23)NC(=O)[C@H](Cc2ccc(O)cc2)NC(=O)[C@H](CCCNC(=N)N)NC(=O)[C@H](Cc2ccccc2)NC(=O)C(C)(C)NC(=O)[C@H](CCCNC(=N)N)NC(=O)[C@H](CCCCN)NC(=O)[C@H](CCCNC(=N)N)NC1=O [Compound 52] ({CH2CO}-F[His(π-Me)]TIRKR[Aib]FRYWYCG-NH2; thioether N-14)	0.125	1
CC(C)[C@@H]1NC(=O)[C@H](Cc2ccccc2)NC(=O)CSC[C@@H](C(=O)NCC(N)=O)NC(=O)[C@H](Cc2cncn2C)NC(=O)[C@H](CCCNC(=N)N)NC(=O)[C@H](Cc2cnc[nH]2)NC(=O)[C@H](Cc2ccccc2)N(C)C(=O)[C@H](CCCNC(=N)N)NC(=O)[C@H](CO)NC(=O)CNC(=O)[C@H](Cc2cnc[nH]2)NC(=O)[C@H](Cc2c[nH]c3ccccc23)NC1=O (racemic) [Compound 9, rac-(3R,6S,9S,12S,15S,18S,21S,27S,30S, 33S,36S)-N-(2-amino-2-oxo-ethyl)-15,36-dibenzyl-9,18-bis(3-guanidinopropyl)-21-(hydroxymethyl)-12,27-bis(1H-imidazol-5-ylmethyl)-30-(1H-indol-3-ylmethyl)-33-isopropyl-16-methyl-6-[(3-methylimidazol-4-yl)methyl]-5,8,11,14,17,20,23,26,29,32,35,38-dodecaoxo-1-thia-4,7,10,13,16,19,22,25,28,31,34,37-dodecazacyclononatriacontane-3-carboxamide]	9.5367E−07	8
CC[C@@H]1NC(=O)[C@H](Cc2ccccc2)NC(=O)CSC[C@@H](C(=O)NCC(N)=O)NC(=O)[C@H](Cc2cncn2C)NC(=O)[C@H](CC)NC(=O)[C@H](Cc2c[nH]cn2)NC(=O)[C@H](Cc2ccccc2)N(C)C(=O)[C@H](CCCNC(=N)N)NC(=O)[C@H](CO)NC(=O)CNC(=O)[C@H](Cc2c[nH]cn2)NC(=O)[C@H](Cc2cccc3ccccc23)NC1=O [Compound 5, (3R,6S,9S,12S,15S,18S,21S,27S,30S, 33S,36S)-N-(2-amino-2-oxo-ethyl)-15,36-dibenzyl-9,33-diethyl-18-(3-guanidinopropyl)-21-(hydroxymethyl)-12,27-bis(1H-imidazol-4-ylmethyl)-16-methyl-6-[(3-methylimidazol-4-yl)methyl]-30-(1-naphthylmethyl)-5,8,11,14,17,20,23,26,29,32,35,38-dodecaoxo-1-thia-4,7,10,13,16,19,22,25,28,31,34,37-dodecazacyclononatriacontane-3-carboxamide] ({CH2CO}-F[Abu][1Nal]HGSR[NMeF]H[Abu][His(π-Me)]CG-NH2; thioether N-12)	0.016	>32
CC[C@@H]1NC(=O)[C@H](Cc2ccccc2)NC(=O)CSC[C@@H](C(=O)NCC(N)=O)NC(=O)[C@H](Cc2cncn2C)NC(=O)[C@H](CCCNC(=N)N)NC(=O)[C@H](Cc2cnc[nH]2)NC(=O)[C@H](Cc2ccc(O)cc2)N(C)C(=O)[C@H](CCCNC(=N)N)NC(=O)[C@H](CO)NC(=O)CN(C)C(=O)[C@H](Cc2cnc[nH]2)NC(=O)[C@H](Cc2c[nH]c3ccccc23)NC1=O (racemic) [Compound 13]	0.00	4
CC[C@@H]1NC(=O)[C@H](Cc2ccccc2)NC(=O)CSC[C@@H](C(=O)NCC(N)=O)NC(=O)[C@H](Cc2cncn2C)NC(=O)[C@H](CCCNC(=N)N)NC(=O)[C@H](Cc2cnc[nH]2)NC(=O)[C@H](Cc2ccccc2)N(C)C(=O)[C@H](CCCNC(=N)N)NC(=O)[C@H](CO)NC(=O)CNC(=O)[C@H](Cc2cnc[nH]2)NC(=O)[C@H](Cc2cccc3ccccc23)NC1=O (racemic) [Compound 10, rac-(3R,6S,9S,12S,15S,18S,21S,27S,30S,3 3S,36S)-N-(2-amino-2-oxo-ethyl)-15,36-dibenzyl-33-ethyl-9,18-bis(3-guanidinopropyl)-21-(hydroxymethyl)-12,27-bis(1H-imidazol-5-ylmethyl)-16-methyl-6-[(3-methylimidazol-4-yl)methyl]-30-(1-naphthylmethyl)-5,8,11,14,17,20,23,26,29,32,35,38-dodecaoxo-1-thia-4,7,10,13,16,19,22,25,28,31,34,37-dodecazacyclononatriacontane-3-carboxamide]	2.3842E−07	8
